Measurements reported in patent publication US9643946B2, “Tricyclic compound and use thereof” (SK CHEMICALS CO., LTD., priority 2013, dated 2017).

Tests used:
human GPR40 protein = human GPR40 protein (Homo sapiens, UniProt O14842); test: GPR40 agonist binding inhibition (displacement of 3H-labeled propanoic acid radioligand); settings: membrane protein including human GPR40, 3H-labeled propanoic acid radioligand, 25° C., 2 hours; read-out: Half maximal inhibitory concentration
Experimental: Measurement of 50% Inhibitory Concentration (ID50) for GPR40 Agonist Binding
To examine the efficacy of the compounds according to one exemplary embodiment of the present invention in modulating GPR40, the half maximal inhibitory concentrations (IC50) of the compounds according to one exemplary embodiment of the present invention were measured by Microbeta2™ (PerkinElmer Inc.) using a change in radiation dose emitted from ^3H-labeled propanoic acid (i.e., 3-(4-((2,6′-dimethyl-6-((4-(^3H))-phenylmethoxy)biphenyl-3-yl)methoxy)phenyl)propanoic acid), which is a radioactive isotope which binds to a human GPR40 protein, as an indicator.
Specifically, a test compound was prepared by serial dilution with DMSO, and 100 μL of a binding buffer (including 25 mM HEPES (pH 7.5), 5 mM MgCl2, 100 mM NaCl, and 0.1% free fatty acid BSA; Sigma-Aldrich Corp.) was put into each well of a 96-well transparent plate. Thereafter, each of the diluted compound, propanoic acid which was prepared by dissolving propanoic acid in DMSO to a concentration of 500 mM and not labeled with a radioactive isotope, and DMSO was dispensed at 5 μL per well. ^3H-labeled propanoic acid was dissolved in a binding buffer at a concentration of 1 nM and dispensed at 50 μL into the corresponding wells, and a membrane protein including a human GPR40 protein was dissolved in a binding buffer at a concentration of 20 μg/well and dispensed at 100 μL, into the corresponding wells.
After the dispensation was completed, the plate was incubated at a temperature of 25° C. and a rotary speed of 230 rpm for 2 hours while shaking. A human GPR40 complex was transferred to Filtermat A (PerkinElmer Inc.) using a cell harvester (PerkinElmer Inc.), washed 10 times with 50 mM tris-HCl, dried, and then scintillated using Meltilex (PerkinElmer Inc.). Thereafter, an emitted radiation dose was measured using Microbeta2™. The radiation doses emitted from the complex in the well containing 10 mM unlabeled propanoic acid and the complex in the well containing DMSO alone were set as 0% and 100%, respectively. Thus, a change curve for each of the radiation doses was plotted to calculate the half maximal inhibitory concentration of the test compound.

male ZFDM rats = test: Hypoglycemic rate after oral glucose loading in rats; assay type: in vivo, rat; settings: oral 0.1 to 30 mg/kg one hour before glucose loading (1.5 g/kg), blood glucose AUC 0 to 120 minutes versus control
Experimental: Measurement of Hypoglycemic Rate in Rats
An effect of the compound according to one exemplary embodiment of the present invention on blood glucose inhibition after glucose loading was examined in male ZFDM rats (Japan SLC, Inc.).
Specifically, male ZFDM rats (7 week-old) pre-fed for a week were fasted overnight, and used as an animal to be tested. A test compound was prepared into a 0.5% methylcellulose suspension, which was orally administered to rats at a dose of 0.1 to 30 mg/kg before an hour of glucose loading (1.5 g/kg). As the control, 0.5% methylcellulose was administered. After the glucose administration, blood was drawn from the rats' tails after 0, 15, 30, 60 and 120 minutes to measure a blood glucose level. The area under the curve (AUC) for compound treatment was calculated using a blood glucose change profile from t=0 to 120 minutes, and a hypoglycemic rate (%) for the control was calculated.

Chain of human GPR40 protein (O14842 whole entry): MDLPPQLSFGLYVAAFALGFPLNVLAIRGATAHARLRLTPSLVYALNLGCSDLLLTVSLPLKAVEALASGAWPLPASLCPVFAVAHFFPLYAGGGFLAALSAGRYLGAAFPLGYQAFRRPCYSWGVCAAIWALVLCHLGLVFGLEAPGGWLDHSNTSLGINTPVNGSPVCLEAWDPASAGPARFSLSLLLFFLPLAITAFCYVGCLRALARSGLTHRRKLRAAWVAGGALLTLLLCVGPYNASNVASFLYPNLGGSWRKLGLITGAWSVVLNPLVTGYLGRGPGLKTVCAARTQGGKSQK

| IC50 (human GPR40 protein) | SMILES | Hypoglycemic rate (male ZFDM rats) |
| --- | --- | --- |
| 50.5 nM | CC1(COc2ccc3c(c2)CCCc2ccc(COc4ccc5c(c4)OC[C@H]5CC(=O)O)cc2-3)CCS(=O)(=O)CC1 [Example 93, (S)-2-(6-((9-((4-methyl-1,1-dioxidotetrahydro-2H-thiopyran-4-yl)methoxy)-6,7-dihydro-5H-dibenzo[a,c][7]annulen-2-yl)methoxy)-2,3-dihydrobenzofuran-3-yl)acetic acid] |  |
| 26.6 nM | CCS(=O)(=O)CCCOc1cc(C)c2c(c1)CCCc1ccc(COc3ccc([C@H]4C[C@@H]4C(=O)O)cc3)cc1-2 [Example 61, (1S,2S)-2-(4-((9-(3-(ethylsulfonyl)propoxy)-11-methyl-6,7-dihydro-5H-dibenzo[a,c][7]annulen-2-yl)methoxy)phenyl)cyclopropanecarboxylic acid] |  |
| 84.4 nM | C[C@@H]1Cc2cc(OCCCS(C)(=O)=O)ccc2-c2cc(COc3ccc4c(c3)OC[C@H]4CC(=O)O)ccc2O1 [Example 79, 2-((S)-6-(((R)-6-methyl-9-(3-(methylsulfonyl)propoxy)-6,7-dihydrodibenzo[b,d]oxepin-2-yl)methoxy)-2,3-dihydrobenzofuran-3-yl)acetic acid] |  |
| 53.1 nM | Cc1cc(OCC2CCS(=O)(=O)CC2)cc2c1-c1cc(COc3ccc4c(c3)OC[C@H]4CC(=O)O)ccc1OCC2 [Example 47, 2-((3S)-6-((9-((1,1-dioxidotetrahydro-2H-thiopyran-4-yl)methoxy)-11-methyl-6,7-dihydrodibenzo[b,d]oxepin-2-yl)methoxy)-2,3-dihydrobenzofuran-3-yl)acetic acid] |  |
| 39.1 nM | CCS(=O)(=O)CCCOc1cc(C)c2c(c1)CCOc1ccc(COc3ccc4c(c3)OC[C@H]4CC(=O)O)cc1-2 [Example 38, 2-((3S)-6-((9-(3-(ethylsulfonyl)propoxy)-11-methyl-6,7-dihydrodibenzo[b,d]oxepin-2-yl)methoxy)-2,3-dihydrobenzofuran-3-yl)acetic acid] |  |
| 71 nM | Cc1cc(OC2CCS(=O)(=O)CC2)cc2c1-c1cc(COc3ccc([C@H]4C[C@@H]4C(=O)O)cc3)ccc1CCC2 [Example 59, (1S,2S)-2-(4-((9-((1,1-dioxidotetrahydro-2H-thiopyran-4-yl)oxy)-11-methyl-6,7-dihydro-5H-dibenzo[a,c][7]annulen-2-yl)methoxy)phenyl)cyclopropanecarboxylic acid] |  |
| 5.6 nM | CC#C[C@@H](CC(=O)O)c1ccc(OCc2ccc3c(c2)-c2ccc(OCC4CCS(=O)(=O)CC4)cc2CCC3)cc1 [Example 109, (S)-3-(4-((9-((1,1-dioxidotetrahydro-2H-thiopyran-4-yl)methoxy)-6,7-dihydro-5H-dibenzo[a,c][7]annulen-2-yl)methoxy)phenyl)hex-4-ynoic acid] |  |
| 181 nM | Cc1nc(N2CCOCC2)nc2c1-c1cc(COc3ccc4c(c3)OC[C@H]4CC(=O)O)ccc1CCC2 [Example 81, 2-((3S)-6-((1-methyl-3-morpholino-6,7-dihydro-5H-benzo[3,4]cyclohepta[1,2-d]pyrimidin-10-yl)methoxy)-2,3-dihydrobenzofuran-3-yl)acetic acid] |  |
| 14.7 nM | Cc1cc(OC2CCS(=O)(=O)CC2)cc2c1-c1cc(CNc3ccc([C@H]4C[C@@H]4C(=O)O)cc3)ccc1CCC2 [Example 76, (1S,2S)-2-(4-(((9-((1,1-dioxidotetrahydro-2H-thiopyran-4-yl)oxy)-11-methyl-6,7-dihydro-5H-dibenzo[a,c][7]annulen-2-yl)methyl)amino)phenyl)cyclopropanecarboxylic acid] |  |
| 16.2 nM | CCS(=O)(=O)CCCOc1ccc2c(c1)CCCc1cc(F)c(CNc3ccc([C@H]4C[C@@H]4C(=O)O)cc3)cc1-2 [Example 105, (1S,2S)-2-(4-(((9-(3-(ethylsulfonyl)propoxy)-3-fluoro-6,7-dihydro-5H-dibenzo[a,c][7]annulen-2-yl)methyl)amino)phenyl)cyclopropanecarboxylic acid] |  |
| 160 nM | O=C(O)C[C@@H]1COc2cc(OCc3ccc4c(c3)-c3ccc(OCC5(O)CCS(=O)(=O)CC5)cc3CCC4)ccc21 [Example 65, (S)-2-(6-((9-((4-hydroxy-1,1-dioxidotetrahydro-2H-thiopyran-4-yl)methoxy)-6,7-dihydro-5H-dibenzo[a,c][7]annulen-2-yl)methoxy)-2,3-dihydrobenzofuran-3-yl)acetic acid] |  |
| 125 nM | CCS(=O)(=O)CCCOc1cc(C)c2c(c1)CCOc1ccc(COc3ccc([C@H]4C[C@@H]4C(=O)O)c(F)c3)cc1-2 [Example 41, (1S,2S)-2-(4-((9-(3-(ethylsulfonyl)propoxy)-11-methyl-6,7-dihydrodibenzo[b,d]oxepin-2-yl)methoxy)-2-fluorophenyl)cyclopropanecarboxylic acid] |  |
| 75.7 nM | CCN1CCc2cc(OCCCS(C)(=O)=O)ccc2-c2cc(COc3ccc4c(c3)OC[C@H]4CC(=O)O)ccc21 [Example 44, (S)-2-(6-((5-ethyl-9-(3-(methylsulfonyl)propoxy)-6,7-dihydro-5H-dibenzo[b,d]azepin-2-yl)methoxy)-2,3-dihydrobenzofuran-3-yl)acetic acid] |  |

Continued, compound first:

| SMILES | IC50 (human GPR40 protein) | Hypoglycemic rate (male ZFDM rats) |
| --- | --- | --- |
| CS(=O)(=O)CCCOc1ccc2c(c1)COCc1ccc(CNc3ccc([C@H]4C[C@@H]4C(=O)O)cc3)cc1-2 [Example 18, (1S,2S)-2-(4-(((9-(3-(methylsulfonyl)propoxy)-5,7-dihydrodibenzo[c,e]oxepin-2-yl)methyl)amino)phenyl)cyclopropanecarboxylic acid] | 752 nM |  |
| Cc1cc(OCCCS(C)(=O)=O)cc2c1-c1cc(COc3ccc4c(c3)OC[C@H]4CC(=O)O)ccc1OC2 [Example 26, (S)-2-(6-((10-methyl-8-(3-(methylsulfonyl)propoxy)-6H-benzo[c]chromen-2-yl)methoxy)-2,3-dihydrobenzofuran-3-yl)acetic acid] |  | 31.0% |
| Cc1cc(OCCCS(C)(=O)=O)cc2c1-c1cc(COc3ccc4c(c3)OC[C@H]4CC(=O)O)ccc1OCC2 [Example 14, 2-((3S)-6-((11-methyl-9-(3-(methylsulfonyl)propoxy)-6,7-dihydrodibenzo[b,d]oxepin-2-yl)methoxy)-2,3-dihydrobenzofuran-3-yl)acetic acid] | 17.7 nM |  |
| CCS(=O)(=O)CCCOc1cc(C)c2c(c1)CCCc1ccc(COc3ccc4c(c3)OC[C@H]4CC(=O)O)cc1-2 [Example 57, 2-((3S)-6-((9-(3-(ethylsulfonyl)propoxy)-11-methyl-6,7-dihydro-5H-dibenzo[a,c][7]annulen-2-yl)methoxy)-2,3-dihydrobenzofuran-3-yl)acetic acid] |  | 21.7% |
| O=C(O)[C@H]1C[C@@H]1c1ccc(NCc2ccc3c(c2)-c2ccc(OCC4CCS(=O)(=O)CC4)cc2CCC3)cc1 [Example 78, (1S,2S)-2-(4-(((9-((1,1-dioxidotetrahydro-2H-thiopyran-4-yl)methoxy)-6,7-dihydro-5H-dibenzo[a,c][7]annulen-2-yl)methyl)amino)phenyl)cyclopropanecarboxylic acid] |  | 27.4% |
| CS(=O)(=O)CCCOc1ccc2c(c1)CCCc1ccc(COc3ccc([C@H]4C[C@@H]4C(=O)O)cc3)cc1-2 [Example 25, (1S,2S)-2-(4-((9-(3-(methylsulfonyl)propoxy)-6,7-dihydro-5H-dibenzo[a,c][7]annulen-2-yl)methoxy)phenyl)cyclopropanecarboxylic acid] | 103 nM |  |
| Cc1cc(OCCCS(C)(=O)=O)cc2c1-c1cc(COc3ccc([C@H]4C[C@@H]4C(=O)O)cc3)ccc1CC2 [Example 31, (1S,2S)-2-(4-((5-methyl-7-(3-(methylsulfonyl)propoxy)-9,10-dihydrophenanthren-3-yl)methoxy)phenyl)cyclopropanecarboxylic acid] | 45.7 nM |  |
| Cc1cc(OCCCS(C)(=O)=O)cc2c1-c1cccc(COc3ccc4c(c3)OC[C@H]4CC(=O)O)c1CCC2 [Example 1, 2-((3S)-6-((11-methyl-9-(3-(methylsulfonyl)propoxy)-6,7-dihydro-5H-dibenzo[a,c][7]annulen-4-yl)methoxy)-2,3-dihydrobenzofuran-3-yl)acetic acid] | 158 nM |  |
